# Test results from ChEMBL document CHEMBL5244235, “Diarylpentanoids with antitumor activity: A critical review of structure-activity relationship studies” (Eur J Med Chem, 2020).
# Tests used:
# P388 = test: Antiproliferative activity against mouse P388 cells assessed as cell growth inhibition; assay type: functional, cell-based
# L1210 = test: Antiproliferative activity against mouse L1210 cells assessed as cell growth inhibition; assay type: functional, cell-based
# [1] = Antiproliferative activity against human Molt 4/C8 cells assessed as cell growth inhibition; assay type: functional, cell-based; conditions: Molt4/C8
# CCRF-CEM = test: Antiproliferative activity against human CEM cells assessed as cell growth inhibition; assay type: functional, cell-based
# MDA-MB-231 = test: Growth inhibition of human MDA-MB-231 cells measured after 72 hrs by microplate reader analysis; assay type: functional
# RPMI-7951 = test: Growth inhibition of human RPMI-7951 cells measured after 72 hrs by microplate reader analysis; assay type: functional, cell-based; conditions: RPMI-7951, 72 h
# GCIY = test: Antiproliferative activity against human GCIY cells assessed as cell growth inhibition measured after 72 hrs; assay type: functional, cell-based
# [2] = Antiproliferative activity against human SH-10-TC cells assessed as cell growth inhibition measured after 72 hrs; assay type: functional, cell-based
# HCT-116 = test: Antiproliferative activity against human HCT-116 cells assessed as cell growth inhibition measured after 72 hrs; assay type: functional, cell-based; conditions: HCT-116, 72 h
# DLD-1 = test: Antiproliferative activity against human DLD-1 cells assessed as cell growth inhibition measured after 72 hrs; assay type: functional, cell-based; conditions: DLD-1, 72 h
# A549 = test: Antiproliferative activity against human A549 cells assessed as cell growth inhibition measured after 72 hrs; assay type: functional, cell-based; conditions: A549, 72 h
# ACHN = test: Antiproliferative activity against human ACHN cells assessed as cell growth inhibition measured after 72 hrs; assay type: functional, cell-based
# Huh-7 = test: Antiproliferative activity against human Huh-7 cells assessed as cell growth inhibition measured after 72 hrs; assay type: functional, cell-based; conditions: Huh-7, 72 h
# [3] = Antiproliferative activity against human OVK18 cells assessed as cell growth inhibition measured after 72 hrs; assay type: functional, cell-based; conditions: OVK18, 72 h
# MCF7 = test: Antiproliferative activity against human MCF7 cells assessed as cell growth inhibition measured after 72 hrs; assay type: functional, cell-based; conditions: MCF7, 72 h
# A-431 = test: Antiproliferative activity against human A-431 cells assessed as cell growth inhibition measured after 72 hrs; assay type: functional, cell-based; conditions: A-431, 72 h
# HuCCT-1 = test: Antiproliferative activity against human HuCCT-1 cells assessed as cell growth inhibition measured after 72 hrs; assay type: functional, cell-based; conditions: HuCCT-1, 72 h
# 8505C = test: Antiproliferative activity against human 8505C cells assessed as cell growth inhibition measured after 72 hrs; assay type: functional, cell-based
# G-361 = test: Antiproliferative activity against human G-361 cells assessed as cell growth inhibition measured after 72 hrs; assay type: functional, cell-based; conditions: G-361, 72 h
# PC-3 = test: Antiproliferative activity against human PC-3 cells assessed as cell growth inhibition measured after 72 hrs; assay type: functional, cell-based; conditions: PC-3, 72 h
# [4] = Antiproliferative activity against human PK-1 cells assessed as cell growth inhibition measured after 72 hrs; assay type: functional, cell-based; conditions: PK-1, 72 h
smiles,measurement,setting,value
C=CC(=O)N1C/C(=C\c2ccc([N+](=O)[O-])cc2)C(=O)/C(=C/c2ccc([N+](=O)[O-])cc2)C1,IC50,P388,0.28 µM
same,IC50,L1210,0.28 µM
same,IC50,[1],0.28 µM
same,IC50,CCRF-CEM,0.28 µM
O=C1/C(=C/c2ccccc2)CN(C(=O)c2ccc(/C=C/C(=O)c3ccc(O)cc3)cc2)C/C1=C\c1ccccc1,IC50,P388,0.221 µM
same,IC50,[1],1.6 µM
same,IC50,CCRF-CEM,1.61 µM
O=C1/C(=C/c2ccccc2)CN(C(=O)/C=C/c2ccccc2)C/C1=C\c1ccccc1,IC50,P388,0.221 µM
same,IC50,L1210,5.34 µM
same,IC50,[1],1.6 µM
same,IC50,CCRF-CEM,1.61 µM
O=C1/C(=C/c2ccccc2F)CNC/C1=C\c1ccccc1F,GI50,MDA-MB-231,0.8 µM
same,IC50,RPMI-7951,0.7 µM
COc1ccc(/C=C/C(=O)N2C/C(=C\c3ccccc3)C(=O)/C(=C/c3ccccc3)C2)cc1,IC50,P388,0.221 µM
same,IC50,L1210,5.34 µM
same,IC50,[1],1.6 µM
same,IC50,CCRF-CEM,1.61 µM
O=C1/C(=C/c2ccccc2)CN(C(=O)/C=C/c2ccc(Cl)cc2)C/C1=C\c1ccccc1,IC50,P388,0.221 µM
same,IC50,L1210,5.34 µM
same,IC50,[1],1.6 µM
same,IC50,CCRF-CEM,1.61 µM
COc1cc(/C=C/C(=O)/C=C/c2cccc(O)c2)cc(OC)c1OC,IC50,GCIY,1 µM
same,IC50,[2],1 µM
same,IC50,HCT-116,1 µM
same,IC50,DLD-1,1 µM
same,IC50,A549,1 µM
same,IC50,ACHN,1 µM
same,IC50,Huh-7,1 µM
same,IC50,[3],1 µM
same,IC50,MCF7,1 µM
same,IC50,A-431,1 µM
same,IC50,HuCCT-1,1 µM
same,IC50,8505C,1 µM
same,IC50,G-361,1 µM
same,IC50,PC-3,1 µM
same,IC50,[4],1 µM
O=C1/C(=C/c2ccccc2)CN(C(=O)/C=C/c2ccc3c(c2)OCO3)C/C1=C\c1ccccc1,IC50,P388,0.221 µM
same,IC50,L1210,5.34 µM
same,IC50,[1],1.6 µM
same,IC50,CCRF-CEM,1.61 µM
O=C1/C(=C/c2ccc([N+](=O)[O-])cc2)CNC/C1=C\c1ccc([N+](=O)[O-])cc1,IC50,P388,0.81 µM
same,IC50,L1210,0.81 µM
same,IC50,[1],0.81 µM
same,IC50,CCRF-CEM,0.81 µM
COc1ccc(/C=C2\CNC/C(=C\c3ccc(OC)cc3)C2=O)cc1,IC50,P388,0.81 µM
same,IC50,L1210,0.81 µM
same,IC50,[1],0.81 µM
same,IC50,CCRF-CEM,0.81 µM
O=C1/C(=C/c2ccccc2)CN(C(=O)/C=C/c2ccc([N+](=O)[O-])cc2)C/C1=C\c1ccccc1,IC50,P388,0.221 µM
same,IC50,L1210,5.34 µM
same,IC50,[1],1.6 µM
same,IC50,CCRF-CEM,1.61 µM
C=CC(=O)N1C/C(=C\c2ccc(Cl)c(Cl)c2)C(=O)/C(=C/c2ccc(Cl)c(Cl)c2)C1,IC50,P388,0.28 µM
same,IC50,L1210,0.28 µM
same,IC50,[1],0.28 µM
same,IC50,CCRF-CEM,0.28 µM
O=C1/C(=C/c2ccc(Cl)c(Cl)c2)CNC/C1=C\c1ccc(Cl)c(Cl)c1,IC50,P388,0.81 µM
same,IC50,L1210,0.81 µM
same,IC50,[1],0.81 µM
same,IC50,CCRF-CEM,0.81 µM
COc1ccc(/C=C/C(=O)N2C/C(=C\c3ccccc3)C(=O)/C(=C/c3ccccc3)C2)cc1OC,IC50,P388,0.221 µM
same,IC50,L1210,5.34 µM
same,IC50,[1],1.6 µM
same,IC50,CCRF-CEM,1.61 µM
O=C1/C(=C/c2ccccc2)CNC/C1=C\c1ccccc1,IC50,P388,0.81 µM
same,IC50,L1210,0.81 µM
same,IC50,[1],0.81 µM
same,IC50,CCRF-CEM,0.81 µM
COc1ccc(C(=O)/C=C/c2ccc(C(=O)N3C/C(=C\c4ccccc4)C(=O)/C(=C/c4ccccc4)C3)cc2)cc1OC,IC50,P388,0.221 µM
same,IC50,L1210,5.34 µM
same,IC50,[1],1.6 µM
same,IC50,CCRF-CEM,1.61 µM
Cc1ccc(/C=C/C(=O)N2C/C(=C\c3ccccc3)C(=O)/C(=C/c3ccccc3)C2)cc1,IC50,P388,0.221 µM
same,IC50,L1210,5.34 µM
same,IC50,[1],1.6 µM
same,IC50,CCRF-CEM,1.61 µM
O=C1/C(=C/c2ccccc2)CN(C(=O)c2ccc(/C=C/C(=O)c3ccccc3)cc2)C/C1=C\c1ccccc1,IC50,P388,0.221 µM
same,IC50,L1210,5.34 µM
same,IC50,[1],1.6 µM
same,IC50,CCRF-CEM,1.61 µM
C=CC(=O)N1C/C(=C\c2ccc(Cl)cc2)C(=O)/C(=C/c2ccc(Cl)cc2)C1,IC50,P388,0.28 µM
same,IC50,L1210,0.28 µM
same,IC50,[1],0.28 µM
same,IC50,CCRF-CEM,0.28 µM
Cc1ccc(C(=O)/C=C/c2ccc(C(=O)N3C/C(=C\c4ccccc4)C(=O)/C(=C/c4ccccc4)C3)cc2)cc1C,IC50,P388,0.221 µM
same,IC50,L1210,5.34 µM
same,IC50,[1],1.6 µM
same,IC50,CCRF-CEM,1.61 µM
O=C1/C(=C/c2ccc(F)cc2)CNC/C1=C\c1ccc(F)cc1,IC50,P388,0.81 µM
same,IC50,L1210,0.81 µM
same,IC50,[1],0.81 µM
same,IC50,CCRF-CEM,0.81 µM
